Laboratory results reported in US8569264B2, “Antibacterial 4,5-substituted aminoglycoside analogs having multiple substituents” (ISIS Pharmaceuticals, Inc., priority 2005, dated 2013).
Where two headings read alike, the source gives them in different places.

What was measured:
[1] = biological target: 18S ribosomal subunit RNA target; assay: Mass spectrometry based binding assay (FTICR), 18S
Method in brief: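 Ligands at varying concentrations were mixed with 2.5 or 5 μM RNA in 100 mM ammonium acetate with 33% isopropyl alcohol, then analysed by negative-mode ESI-FTICR. Complex/free RNA ion ratios plotted against ligand concentration were fitted to a second- or higher-order binding polynomial to give KD.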

[2] = biological target: 16S ribosomal subunit RNA target; assay: Mass spectrometry based binding assay (FTICR), 16S
Method in brief: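 Binding to the 16S ribosomal subunit RNA target was measured by FTICR mass spectrometry. Ligands or ligand mixtures were prepared at several concentrations in 10 μL of aqueous 100 mM ammonium acetate buffer with 33% isopropyl alcohol. Samples were infused at 1 μL/min into a negative-mode electrospray source, and ions were held 1 sec in an RF-only hexapole. Complex/free RNA ratios versus ligand concentration were fitted to a binding polynomial to obtain KD.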

[3] = system: E. coli S30 bacterial extract (pBestLuc firefly luciferase reporter); assay: Coupled bacterial transcription/translation assay; format: biochemical; conditions: read-out: Trans/Trans IC50
Method in brief: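 Coupled transcription/translation of firefly luciferase from 1 μg pBestLuc (tac promoter) in E. coli S30 extract, with or without test compound. Reaction 35 min at 37° C., then functional luciferase detected by luminescence.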

[4] = system: E. Coli; assay: MIC, E. Coli; format: cell-based
Method in brief: (§1)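 Broth microdilution in duplicate, 150 μL: overnight-culture bacteria were added to compound in 4% DMSO in water. Final inoculum was about 10^5–10^6 CFU/well.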

[5] = system: S. Aureus; assay: MIC, S. Aureus; format: cell-based
Method in brief: as §1

[6] = system: E. coli ATCC 25922; assay: MIC, E. coli ATCC 25922; format: cell-based
Experimental: (§2) The MIC assays are carried out in 150 μL volume in duplicate in 96-well clear flat-bottom plates. The bacterial suspension from an overnight culture growth in appropriate medium is added to a solution of test compound in 4% DMSO in water. Final bacterial inoculum is approximately 10^5-10^6 CFU/well. […] Both ampicillin and tetracycline are used as antibiotic-positive controls in each screening assay for S. pyogenes, E. coli imp-, E. coli, S. aureus, E. faecalis, K. pneumoniae and P. vulgaris. Ciprofloxacin is used as an antibiotic positive control in each screening assay for P. aeruginosa.
(§3) The following compounds were prepared using methods illustrated in the previous examples. The compounds were also examined in standard bacterial assays against E. Coli, S. Aureus, P. aurginosa, K. pneumoniae, P. vulgaris, and A. baumannii to determine activities. Each of the bacterial cultures that are available from ATCC (www.atcc.org) is identified by its ATCC number. A. baumannii is gentamicin sensitive Acinetobacter baumannii #2 from Walter Reed.

[7] = system: S. aureus ATCC 13709; assay: MIC, S. aureus ATCC 13709; format: cell-based
Experimental: as §2, §3

[8] = system: P. aurginosa ATCC 25416; assay: MIC, P. aurginosa ATCC 25416; format: cell-based
Experimental: as §2, §3

[9] = system: P. aurginosa ATCC 29248; assay: MIC, P. aurginosa ATCC 29248; format: cell-based
Experimental: as §2, §3

[10] = system: K. pneumoniae ATCC 10031; assay: MIC, K. pneumoniae ATCC 10031; format: cell-based
Experimental: as §2, §3

[11] = system: P. vulgaris ATCC 8427; assay: MIC, P. vulgaris ATCC 8427; format: cell-based
Experimental: as §2, §3

[12] = system: gentamicin sensitive Acinetobacter baumannii #2 from Walter Reed; assay: MIC, A. baumannii WReed 2; format: cell-based
Experimental: as §2, §3

[13] = system: Staphylococcus aureus (Smith Strain ATCC 13709); assay: Staphylococcus aureus mouse protection assay; format: in vivo, mice; conditions: for # Dead mice/Total mice in group: Staph Conc. 10^6, 10% Mucin
[14] = Example 110, listed as 9p - sample 1
[15] = Example 110, listed as 9p - sample 2

For `NCC1OC(OC2C(CO)OC(OC3C(O)C(N)CC(N)C3OC3OC(CO)C(O)C(O)C3N)C2OCCNCCc2ccccc2)C(N)C(O)C1O` (stereo not drawn) [Compound 9p], the Kd ([1]; FTICR mass spectrometry, Example 105) was 1300 nM, the Kd ([2]; FTICR mass spectrometry, run at 100 nM RNA, Example 105) was 100 nM and the IC50 ([3]; Example 105) was 1100 nM. For the same molecule, the “MIC E. Coli.” value ([4]; Example 105) was 3 to 6 µM, the “MIC S. Aureus” value ([5]; Example 105) was 0.3 to 0.6 µM and the “MIC E. coli ATCC 25922” value [6, 14] was 5 to 10 µM. For the same molecule, the “MIC E. coli ATCC 25922” value [6, 15] was greater than 40 µM, the “MIC E. coli ATCC 25922” value ([6]; Example 111) was 5 to 10 µM and the “MIC S. aureus ATCC 13709” value [7, 14] was 10 to 20 µM. For the same molecule, the “MIC S. aureus ATCC 13709” value [7, 15] was 1.2 to 2.5 µM, the “MIC S. aureus ATCC 13709” value ([7]; Example 111) was 0.6 to 1.3 µM and the “MIC P. aurginosa ATCC 25416” value ([8]; Example 110) was greater than 40 µM. The “MIC P. aurginosa ATCC 25416” value ([8]; Example 111) was greater than 40 µM, the “MIC P. aurginosa ATCC 29248” value ([9]; Example 110) was greater than 40 µM and the “MIC P. aurginosa ATCC 29248” value ([9]; Example 111) was greater than 40 µM. For the same molecule, the “MIC K. pneumoniae ATCC 10031” value [10, 14] was 1.3 to 2.5 µM, the “MIC K. pneumoniae ATCC 10031” value [10, 15] was greater than 40 µM and the “MIC K. pneumoniae ATCC 10031” value ([10]; Example 111) was 2.5-5^ uM. For the same molecule, the “MIC P. vulgaris ATCC 8427” value [11, 14] was 2.5-5^ uM, the “MIC P. vulgaris ATCC 8427” value [11, 15] was 20 to 40 µM and the “MIC P. vulgaris ATCC 8427” value ([11]; Example 111) was greater than 40 µM. For the same molecule, the “MIC A. baumannii WReed 2” value [12, 14] was 2.5-5^ uM, the “MIC A. baumannii WReed 2” value [12, 15] was greater than 40 µM and the “MIC A. baumannii WReed 2” value ([12]; Example 111) was greater than 40 µM. The “# Dead mice/Total mice in group” value ([13]; 0.1 mg/kg in PBS pH=7.4, the 14th table) was 5/10 (10% Mucin), the “# Dead mice/Total mice in group” value ([13]; 0.5 mg/kg in PBS pH=7.4, the 14th table) was 0/10 (10% Mucin) and the “# Dead mice/Total mice in group” value ([13]; 1 mg/kg in PBS pH=7.4, the 14th table) was 0/10 (10% Mucin). For the same molecule, the “# Dead mice/Total mice in group” value ([13]; 2 mg/kg in PBS pH=7.4, the 14th table) was 0/10 (10% Mucin), the “# Dead mice/Total mice in group” value ([13]; 4.5 mg/kg in PBS pH=7.4, the 14th table) was 0/10 (10% Mucin) and the “# Dead mice/Total mice in group” value ([13]; 9 mg/kg in PBS pH=7.4, the 14th table) was 0/10 (10% Mucin). The “# Dead mice/Total mice in group” value ([13]; 18 mg/kg in PBS pH=7.4, the 14th table) was 0/10 (10% Mucin), the “# Dead mice/Total mice in group” value ([13]; 37 mg/kg in PBS pH=7.4, the 14th table) was 0/10 (10% Mucin) and the “# Dead mice/Total mice in group” value ([13]; 75 mg/kg in PBS pH=7.4, the 14th table) was 0/10 (10% Mucin). For the same molecule, the “# Dead mice/Total mice in group” value ([13]; […] in PBS pH=7.4, the 14th table) was 1/10 (10% Mucin), the smallest protective dose ([13]; protective at doses as small as, summary of the 14th table) was 0.25 mg/kg and the “prevention of lethal bacterial infections in mice” value ([13]; result in words, summary of the 14th table) was “effective at preventing lethal bacterial infections in mice”.

`NCC1OC(OC2C(CO)OC(OC3C(O)C(N)CC(N)C3OC3OC(CNCCc4ccccc4)C(O)C(O)C3N)C2O)C(N)C(O)C1O` (stereo not drawn) [Compound 15j] gave a Kd ([1]; Example 108) of 2200 nM, a Kd ([2]; Example 108) of 500 nM and an IC50 ([3]; Example 108) of 200 nM. The “MIC E. Coli.” value ([4]; Example 108) was 1.3 to 2.5 µM, the “MIC S. Aureus” value ([5]; Example 108) was 0.3 to 0.6 µM and the “MIC E. coli ATCC 25922” value ([6]; Example 110) was 1.3 to 2.5 µM. For the same molecule, the “MIC E. coli ATCC 25922” value ([6]; Example 111) was 1.3 to 2.5 µM, the “MIC S. aureus ATCC 13709” value ([7]; Example 110) was 10 to 20 µM and the “MIC S. aureus ATCC 13709” value ([7]; Example 111) was 0.3 to 0.6 µM. For the same molecule, the “MIC P. aurginosa ATCC 25416” value ([8]; Example 110) was greater than 40 µM, the “MIC P. aurginosa ATCC 25416” value ([8]; Example 111) was greater than 40 µM and the “MIC P. aurginosa ATCC 29248” value ([9]; Example 110) was greater than 40 µM. For the same molecule, the “MIC P. aurginosa ATCC 29248” value ([9]; Example 111) was greater than 40 µM, the “MIC K. pneumoniae ATCC 10031” value ([10]; Example 110) was less than 0.6 µM and the “MIC K. pneumoniae ATCC 10031” value ([10]; Example 111) was 0.6 to 1.3 µM. The “MIC P. vulgaris ATCC 8427” value ([11]; Example 110) was 1.3 to 2.5 µM, the “MIC P. vulgaris ATCC 8427” value ([11]; Example 111) was greater than 40 µM and the “MIC A. baumannii WReed 2” value ([12]; Example 110) was 1.3 to 2.5 µM. The “MIC A. baumannii WReed 2” value ([12]; Example 111) was 20 to 40 µM, the “# Dead mice/Total mice in group” value ([13]; 0.5 mg/kg subcutaneously, the 13th table) was 7/10 and the “# Dead mice/Total mice in group” value ([13]; 1 mg/kg subcutaneously, the 13th table) was 0/10. For the same molecule, the “# Dead mice/Total mice in group” value ([13]; 2 mg/kg subcutaneously, the 13th table) was 0/10, the “# Dead mice/Total mice in group” value ([13]; 4.5 mg/kg subcutaneously, the 13th table) was 0/10 and the “# Dead mice/Total mice in group” value ([13]; 9 mg/kg subcutaneously, the 13th table) was 0/10. For the same molecule, the “# Dead mice/Total mice in group” value ([13]; 18 mg/kg subcutaneously, the 13th table) was 0/10, the “# Dead mice/Total mice in group” value ([13]; 37 mg/kg subcutaneously, the 13th table) was 0/10 and the “# Dead mice/Total mice in group” value ([13]; 75 mg/kg subcutaneously one and 3 hour after infection, intraperitoneal, the 13th table) was 0/10.
